Experimental data taken from the supplement of paper PMC4862054.

The molecules below were run on SK-BR-3 (assay: normalised viability (% of control), CellTiter-Blue; higher = more viable cells (about 100 = DMSO control)). Conditions: 100 nM; incubation time: 72 h.
How it was run: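 Breast cancer cell lines in 20 µl suspension were seeded onto 384-well plates pre-loaded with compound dissolved in 5 µl medium, then incubated 72 h. CellTiter-Blue reagent (2.5 µl) was added for 2 h at 37 °C and fluorescence read at 560/590 nm. Each plate was normalised to vehicle (100) and a positive kill control (0), with Z'-factor quality control. The value is normalised viability at one listed concentration of the series.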

Structure (SMILES) | normalised viability
C#Cc1cccc(Nc2ncnc3cc(OCCOC)c(OCCOC)cc23)c1 [Erlotinib] | 88.7%
O=P1(NCCCl)OCCCN1CCCl (stereo not drawn) [Ifosfamide] | 70.5%
Cc1ccc(-n2nc(C(C)(C)C)cc2NC(=O)Nc2ccc(OCCN3CCOCC3)c3ccccc23)cc1 [Doramapimod] | 69.7%
COc1cc([C@@H]2c3cc4c(cc3[C@@H](O[C@@H]3O[C@@H]5CO[C@@H](C)O[C@H]5[C@H](O)[C@H]3O)[C@H]3COC(=O)[C@H]23)OCO4)cc(OC)c1O [Etoposide] | 58.5%
CN(N=O)C(=O)N[C@@H](C=O)[C@@H](O)[C@H](O)[C@H](O)CO [Streptozocin] | 95.7%

Same assay, conditions: 400 nM; incubation time: 72 h

Structure (SMILES) | normalised viability
N[C@@H](CSC(c1ccccc1)(c1ccccc1)c1ccccc1)C(=O)O [S-trityl-L-cysteine] | 95.8%

Each molecule was assayed on BT-474 (assay: drug sensitivity score (DSS), CellTiter-Glo (DSS (AUC-based score)); higher = stronger drug effect (viability inhibition or cytotoxicity); extreme values may be limits of the assay). Conditions: incubation time: 72 h.
How it was run: (§1)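 A drug sensitivity score was derived from the area under each fitted dose-response curve. Breast cancer cells (20 µl suspension) were seeded onto compound in 384-well plates, using 5 concentrations 10-fold apart over a compound-specific 10,000-fold range, and incubated 72 h. Readouts were CellTox Green fluorescence and then CellTiter-Glo luminescence, with every plate normalised to 0.1 % DMSO and a positive kill control.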

Structure (SMILES) | drug sensitivity score
CNCc1ccc(-c2[nH]c3cc(F)cc4c3c2CCNC4=O)cc1 [Rucaparib] | 1.39
C[C@]12CC[C@@H]3c4ccc(O)cc4C[C@@H](CCCCCCCCC[S+]([O-])CCCC(F)(F)C(F)(F)F)[C@H]3[C@@H]1CC[C@@H]2O (stereo partly drawn) [Fulvestrant] | 0
CN(C)/N=N/c1[nH]cnc1C(N)=O [Dacarbazine] | 0
CC(C)Cn1cnc2c(N)nc3ccccc3c21 [Imiquimod] | 0
C#Cc1cccc(Nc2ncnc3cc(OCCOC)c(OCCOC)cc23)c1 [Erlotinib] | 0
N[C@@H](CSC(c1ccccc1)(c1ccccc1)c1ccccc1)C(=O)O [S-trityl-L-cysteine] | 0
O=P1(NCCCl)OCCCN1CCCl (stereo not drawn) [Ifosfamide] | 0.0144
Cc1ccc(-n2nc(C(C)(C)C)cc2NC(=O)Nc2ccc(OCCN3CCOCC3)c3ccccc23)cc1 [Doramapimod] | 1.64
Cn1c(Nc2ccc(C(F)(F)F)cc2)nc2cc(Oc3ccnc(-c4ncc(C(F)(F)F)[nH]4)c3)ccc21 [RAF265] | 0.538
COc1cc([C@@H]2c3cc4c(cc3[C@@H](O[C@@H]3O[C@@H]5CO[C@@H](C)O[C@H]5[C@H](O)[C@H]3O)[C@H]3COC(=O)[C@H]23)OCO4)cc(OC)c1O [Etoposide] | 3.57
CN(N=O)C(=O)N[C@@H](C=O)[C@@H](O)[C@H](O)[C@H](O)CO [Streptozocin] | 0
Cc1ccc(C(=O)N(CCCN)[C@@H](c2oc3cc(Cl)ccc3c(=O)c2Cc2ccccc2)C(C)C)cc1 | 0

These molecules were tested on BT-549 in the same assay as above. Conditions: incubation time: 72 h.
How it was run: as §1

Structure (SMILES) | drug sensitivity score
CNCc1ccc(-c2[nH]c3cc(F)cc4c3c2CCNC4=O)cc1 [Rucaparib] | 0.12
C[C@]12CC[C@@H]3c4ccc(O)cc4C[C@@H](CCCCCCCCC[S+]([O-])CCCC(F)(F)C(F)(F)F)[C@H]3[C@@H]1CC[C@@H]2O (stereo partly drawn) [Fulvestrant] | 0
CN(C)/N=N/c1[nH]cnc1C(N)=O [Dacarbazine] | 0
CC(C)Cn1cnc2c(N)nc3ccccc3c21 [Imiquimod] | 0
C#Cc1cccc(Nc2ncnc3cc(OCCOC)c(OCCOC)cc23)c1 [Erlotinib] | 0
N[C@@H](CSC(c1ccccc1)(c1ccccc1)c1ccccc1)C(=O)O [S-trityl-L-cysteine] | 0
O=P1(NCCCl)OCCCN1CCCl (stereo not drawn) [Ifosfamide] | 0
Cc1ccc(-n2nc(C(C)(C)C)cc2NC(=O)Nc2ccc(OCCN3CCOCC3)c3ccccc23)cc1 [Doramapimod] | 0
Cn1c(Nc2ccc(C(F)(F)F)cc2)nc2cc(Oc3ccnc(-c4ncc(C(F)(F)F)[nH]4)c3)ccc21 [RAF265] | 1.66
COc1cc([C@@H]2c3cc4c(cc3[C@@H](O[C@@H]3O[C@@H]5CO[C@@H](C)O[C@H]5[C@H](O)[C@H]3O)[C@H]3COC(=O)[C@H]23)OCO4)cc(OC)c1O [Etoposide] | 5.14
CN(N=O)C(=O)N[C@@H](C=O)[C@@H](O)[C@H](O)[C@H](O)CO [Streptozocin] | 0
Cc1ccc(C(=O)N(CCCN)[C@@H](c2oc3cc(Cl)ccc3c(=O)c2Cc2ccccc2)C(C)C)cc1 | 0

Each molecule was assayed on CAL-148 in the same assay as above. Conditions: incubation time: 72 h.
How it was run: as §1

Structure (SMILES) | drug sensitivity score
CNCc1ccc(-c2[nH]c3cc(F)cc4c3c2CCNC4=O)cc1 [Rucaparib] | 1.62
C[C@]12CC[C@@H]3c4ccc(O)cc4C[C@@H](CCCCCCCCC[S+]([O-])CCCC(F)(F)C(F)(F)F)[C@H]3[C@@H]1CC[C@@H]2O (stereo partly drawn) [Fulvestrant] | 0
CN(C)/N=N/c1[nH]cnc1C(N)=O [Dacarbazine] | 0
CC(C)Cn1cnc2c(N)nc3ccccc3c21 [Imiquimod] | 0
C#Cc1cccc(Nc2ncnc3cc(OCCOC)c(OCCOC)cc23)c1 [Erlotinib] | 1.84
N[C@@H](CSC(c1ccccc1)(c1ccccc1)c1ccccc1)C(=O)O [S-trityl-L-cysteine] | 0
O=P1(NCCCl)OCCCN1CCCl (stereo not drawn) [Ifosfamide] | 0
Cc1ccc(-n2nc(C(C)(C)C)cc2NC(=O)Nc2ccc(OCCN3CCOCC3)c3ccccc23)cc1 [Doramapimod] | 0
Cn1c(Nc2ccc(C(F)(F)F)cc2)nc2cc(Oc3ccnc(-c4ncc(C(F)(F)F)[nH]4)c3)ccc21 [RAF265] | 0
COc1cc([C@@H]2c3cc4c(cc3[C@@H](O[C@@H]3O[C@@H]5CO[C@@H](C)O[C@H]5[C@H](O)[C@H]3O)[C@H]3COC(=O)[C@H]23)OCO4)cc(OC)c1O [Etoposide] | 7.19
CN(N=O)C(=O)N[C@@H](C=O)[C@@H](O)[C@H](O)[C@H](O)CO [Streptozocin] | 0
Cc1ccc(C(=O)N(CCCN)[C@@H](c2oc3cc(Cl)ccc3c(=O)c2Cc2ccccc2)C(C)C)cc1 | 0

These molecules were tested on CAL-51 in the same assay as above. Conditions: incubation time: 72 h.
How it was run: as §1

Structure (SMILES) | drug sensitivity score
CNCc1ccc(-c2[nH]c3cc(F)cc4c3c2CCNC4=O)cc1 [Rucaparib] | 0
